Consider 1 molecule from ChEMBL document CHEMBL5465560, “Selectivity Literature for EUbOPEN Chemogenomic Library” (2024).

The subject of test [1] is T1, Receptor-type tyrosine-protein kinase FLT3 (Homo sapiens), P36888 [N841I].
T1 sequence (whole entry): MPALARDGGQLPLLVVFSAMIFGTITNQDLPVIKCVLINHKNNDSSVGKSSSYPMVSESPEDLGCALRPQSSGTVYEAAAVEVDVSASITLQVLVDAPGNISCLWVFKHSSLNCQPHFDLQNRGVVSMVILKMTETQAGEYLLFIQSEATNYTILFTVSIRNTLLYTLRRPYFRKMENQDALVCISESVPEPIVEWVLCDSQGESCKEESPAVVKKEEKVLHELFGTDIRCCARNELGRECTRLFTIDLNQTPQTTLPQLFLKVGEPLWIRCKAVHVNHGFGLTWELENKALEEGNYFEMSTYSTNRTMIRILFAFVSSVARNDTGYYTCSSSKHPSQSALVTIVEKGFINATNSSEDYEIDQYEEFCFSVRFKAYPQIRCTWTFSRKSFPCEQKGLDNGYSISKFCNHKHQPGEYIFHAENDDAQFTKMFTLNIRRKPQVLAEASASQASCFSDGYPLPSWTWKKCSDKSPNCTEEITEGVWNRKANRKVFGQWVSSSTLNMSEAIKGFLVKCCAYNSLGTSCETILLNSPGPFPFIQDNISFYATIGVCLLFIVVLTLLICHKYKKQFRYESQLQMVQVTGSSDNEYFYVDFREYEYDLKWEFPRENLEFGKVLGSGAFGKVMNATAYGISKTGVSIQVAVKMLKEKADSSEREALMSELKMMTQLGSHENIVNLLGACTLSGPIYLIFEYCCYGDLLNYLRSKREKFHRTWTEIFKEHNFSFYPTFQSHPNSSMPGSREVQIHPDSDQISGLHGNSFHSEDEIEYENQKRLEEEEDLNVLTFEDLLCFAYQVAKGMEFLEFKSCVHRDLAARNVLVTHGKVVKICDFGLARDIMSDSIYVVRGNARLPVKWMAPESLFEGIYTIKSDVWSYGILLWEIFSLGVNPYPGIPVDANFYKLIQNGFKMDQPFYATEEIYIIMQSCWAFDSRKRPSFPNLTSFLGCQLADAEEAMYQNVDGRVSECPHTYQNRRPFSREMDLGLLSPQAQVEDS
Description: (§1) Selectivity interaction (KinomeScan (DiscoverX)) EUB0000045b FLT3.

Test [2] deals with T2, Receptor-type tyrosine-protein kinase FLT3 (Homo sapiens), P36888 [R834Q].
T2 sequence (whole entry): T1 sequence (whole entry) with R834Q, I841N
Described as §1.

Test [3] deals with T3, Receptor-type tyrosine-protein kinase FLT3 (Homo sapiens), P36888 [D835H].
T3 sequence (whole entry): T1 sequence (whole entry) with D835H, I841N
The test is described as §1.

Positions count from the first letter of the chain named.

In the case of `C=CC(=O)Nc1cc(-n2c(=O)ccc3cnc4ccc(-c5ccc(NS(C)(=O)=O)cc5)cc4c32)ccc1C`, the % of control in test [1] (at 1 µM) came out at 85%; in test [1] (at 10 µM) it was 86%; in test [2] (at 1 µM), 100%; in test [2] (at 10 µM) it was 100%; in test [3] (at 1 µM) it was 89%; in test [3] (at 10 µM), 100%.
